From patent US20040067904A1, “Gene therapy for prostate cancer: sensibilization of cells to dna damaging drugs and radiation” (priority 2003, published 2004)

Tests used:
plasmid DNA fragments = experiment: Atomic force microscopy of PARP / PARP-DBD interaction with DNA; format: binding
Method: DNA samples or PARP-DNA binding reaction product in Mg^2+containing buffer were deposited on an […] mica surface, allowed to adsorb for 1 min, rinsed with deionized water, and dried in a gentle nitrogen flow. The AFM images were obtained using a NanoScope IIIa instrument equipped with E-scanner (Digital Instruments, Santa Barbara, Calif.) operating in a tapping mode in air as described (Smulson et al., Cancer Res., 58: 3495-3498 (1998)). The tapping frequency of the 125 μm silicon cantilever was 300-400 KHz and the nominal scanning rate was set at 1-2 Hz. No less than 150 uncomplexed DNA molecules and 100 of PARP-DNA complexes were analyzed in each experiment.

LNCaP cells = experiment: Annexin V cell death assay (flow cytometry); format: cell-based, human; conditions: parental LNCaP cells and un-induced LNCaP-DBD sublines; etoposide 10 μM; 24 h
Method: Surface expression of phosphadtidyl serine was determined by Annexin V staining (Trevigen) according to the manufacturer's recommendations. Briefly, LNCaP cells (2-5×10^5) were harvested, washed in PBS and exposed to FITC-labeled Annexin V. To exclude staining of phosphadtidyl serine on the inner surface of the cell membrane, indicative of cytoplasmic membrane disintegration, cells were counterstained with propidium iodite. FITC-Annexin V and propidium iodite staining was determined using a FACStar Plus flow cytometer (Becton Dickinson FACS System). Apoptotic cells were defined as FITC positive and PI negative.

[1] = system: LNCaP cells stably transfected with pPSA (e/p)-DBD/F; experiment: Androgen-regulated PARP-DBD expression (Western blot, RT-PCR, in situ immunofluorescence) in stably transfected LNCaP cells; format: cell-based, human; conditions: R1881 0-10 nM, 24 hours, charcoal-stripped serum for seven days
Method: The androgen responsive prostate carcinoma LNCaP and androgen independent PC-3 cell lines were obtained from American Type Culture Collection (Manassas, Va.) and maintained by serial passage in DMEM supplemented with 10% fetal bovine serum, 100 units/ml penicillin, and 100 μg/ml streptomycin at 37° C. in an atmosphere of 5% CO2 in air. Cells subjected to androgen stimulation tests were maintained in media with 10% charcoal-stripped fetal bovine serum for seven days before the addition of synthetic androgen R1881 (Perkin Elmer Life Science). […]
RNA was isolated from cells using TRIzol Reagent (Gibco) according to manufacturer's protocol. […] The amplified RT-PCR products were analyzed by 1% agarose gel electrophoresis, visualized by ethidium bromide staining and photographed under UV illumination.
Immunodetection of PARP-DBD Flag-fusion protein in human prostate carcinoma cells was performed as previously described (Soldatenkov et al., Cancer J Sci. Am., 3: 13-20 (1997)). […] Insoluble material was removed by centrifugation at […] for 30 min at 16,000×g and protein concentrations were determined using the “Micro BCA protein assay” (Pierce). […] Signals were detected using the enhanced chemiluminescence system (Amersham). […]

Compound: Poly(ADP-ribose) polymerase [recombinant full length PARP]
- binding to DNA fragments (AFM) (plasmid DNA fragments; absence of NAD+): bound plasmid DNA fragments and linked them into chainlike structures
- binding to DNA fragments (AFM) (plasmid DNA fragments; presence of NAD+): dissociated from the DNA fragments

Compound: COc1cc([C@@H]2c3cc4c(cc3[C@@H](O[C@@H]3O[C@@H]5CO[C@@H](C)O[C@H]5[C@H](O)[C@H]3O)[C@H]3COC(=O)[C@H]23)OCO4)cc(OC)c1O [etoposide]
- annexin V-binding activity (early apoptotic changes) (LNCaP cells): only modest increase

Compound: C[C@]1(O)CC[C@H]2[C@@H]3CCC4=CC(=O)CCC4=C3C=C[C@@]21C [R1881]
- stimulation of PARP-DBD expression at levels of mRNA and protein [1]: dose-dependent stimulation
